We go through one compound from article PMC9088392 (RSC Advances, 2022).

In the assay the target is T1, PaER (Ogataea polymorpha, UniProt A0A1B7SQN2).
T1 sequence (A0A1B7SQN2 1-402): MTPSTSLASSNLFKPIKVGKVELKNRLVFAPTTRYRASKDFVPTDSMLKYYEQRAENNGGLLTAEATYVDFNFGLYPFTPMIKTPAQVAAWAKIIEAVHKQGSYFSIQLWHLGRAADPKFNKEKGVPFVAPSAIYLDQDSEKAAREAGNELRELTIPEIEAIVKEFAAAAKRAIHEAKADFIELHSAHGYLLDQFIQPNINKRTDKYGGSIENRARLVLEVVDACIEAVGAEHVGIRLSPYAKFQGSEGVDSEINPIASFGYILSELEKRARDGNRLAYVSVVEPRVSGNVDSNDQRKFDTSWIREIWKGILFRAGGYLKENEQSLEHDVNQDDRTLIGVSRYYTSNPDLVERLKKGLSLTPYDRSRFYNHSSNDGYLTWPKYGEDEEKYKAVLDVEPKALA
The assay can be described thus: flavin released from purified enzyme by heat, RP-HPLC. Format: binding. The conditions noted are these: non-covalent flavin co-purified with the enzyme.

For `Cc1cc2nc3c(=O)[nH]c(=O)nc-3n(C[C@H](O)[C@H](O)[C@H](O)COP(=O)(O)O)c2cc1C` [FMN], the “flavin released from purified enzyme by heat, RP-HPLC” value was “yellow color as expected for FMN-containing protein and was also confirmed by HPLC”.
